These results are taken from publication PMC5589878, “Development of Fluorescent Probes that Target Serotonin 5-HT2B Receptors” (Scientific Reports, 2017).

Structures are written as SMILES. pEC50, pKi: −log10 of the molar value. Read-outs that look alike come from different tables or passages of the source.

Data set [1] deals with T1, human 5-HT2C receptors (Homo sapiens, UniProt P28335).
T1 construct: expressed in transfected cells; host or cells: HeLa-5-HT2C cells (membranes)
T1 sequence (P28335 33-458): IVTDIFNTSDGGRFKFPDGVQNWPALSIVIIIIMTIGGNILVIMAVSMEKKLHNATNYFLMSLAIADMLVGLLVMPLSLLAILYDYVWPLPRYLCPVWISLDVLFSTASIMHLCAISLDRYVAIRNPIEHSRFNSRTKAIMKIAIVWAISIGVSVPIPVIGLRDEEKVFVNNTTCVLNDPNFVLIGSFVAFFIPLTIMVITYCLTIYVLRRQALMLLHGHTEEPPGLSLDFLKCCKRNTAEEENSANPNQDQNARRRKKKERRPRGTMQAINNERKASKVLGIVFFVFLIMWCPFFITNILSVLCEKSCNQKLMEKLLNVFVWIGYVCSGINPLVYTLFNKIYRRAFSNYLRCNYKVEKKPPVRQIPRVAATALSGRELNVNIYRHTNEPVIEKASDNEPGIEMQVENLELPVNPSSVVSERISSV
As to the kind of experiment: Radioligand competition binding assay at human 5-HT2C receptors. In general terms: Displacement assays read how much labelled ligand stays bound in the presence of the test substance.

In data set [2] the target is 5-HT2A receptors (Homo sapiens, UniProt P28223). Put plainly: Radioligand competition binding assay at human 5-HT2A receptors. Set-up: expressed in transfected cells; host or cells: CHO-FA4-5-HT2A cells (membranes).
5-HT2A receptors, sequence (P28223 whole entry): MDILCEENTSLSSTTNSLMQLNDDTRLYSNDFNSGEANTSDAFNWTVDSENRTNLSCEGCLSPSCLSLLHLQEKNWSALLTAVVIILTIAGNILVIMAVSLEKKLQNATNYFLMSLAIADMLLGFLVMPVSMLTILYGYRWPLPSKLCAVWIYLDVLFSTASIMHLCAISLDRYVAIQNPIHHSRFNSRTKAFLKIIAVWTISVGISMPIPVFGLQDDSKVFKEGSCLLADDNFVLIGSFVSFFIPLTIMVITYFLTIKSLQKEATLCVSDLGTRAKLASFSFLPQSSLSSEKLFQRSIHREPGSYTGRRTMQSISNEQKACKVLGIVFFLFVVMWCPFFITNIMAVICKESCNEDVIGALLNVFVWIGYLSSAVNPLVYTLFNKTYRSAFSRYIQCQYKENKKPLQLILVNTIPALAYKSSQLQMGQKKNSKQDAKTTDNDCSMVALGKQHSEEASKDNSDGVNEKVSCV
Data set [3] concerns the target T2, 5-HT2B receptors (Homo sapiens, UniProt P41595). As to the kind of experiment: Radioligand competition binding assay at human 5-HT2B receptors.
A short description of data set [4]: Absorption and emission spectra (photophysical properties). Type of data set: physicochemical. Conditions: 10 μM solutions. How it is done:
The absorption and emission spectra of the fluorescent 5-HT2 ligands (10 and 12) were determined on 10 μM solutions. The most relevant fluorescent properties are collected in Fig. 5. All of the synthesized derivatives emitted fluorescence in the visible region of the spectrum, with selected fluorescent tags (Fig. 4) providing distinctive properties and excitation wavelengths. The excitation wavelengths varied from 305 to 555 nm, whereas those for emission varied from 398 to 580 nm.

The target of data set [5] is T2, 5-HT2B receptors. Put plainly: Functional assay of IPs accumulation at human 5-HT2B receptors. The data set is classed as cell-based. The procedure: After 24 h, growth medium was replaced by serum-free medium containing 10 μCi/mL [^3H]myo-inositol (20.3 Ci/mmol, Perkin-Elmer) for 24 h. […] After the incubation time, assay buffer was discarded and 200 μL of 100 mM formic acid was added to the cells for 30 min at 4 °C and 20 μL of the lysate were transferred to a flexiplate plate (Perkin-Elmer, Waltham, MA, USA) together with 80 μL of a solution of RNA Binding YSi SPA Beads (Perkin-Elmer, Waltham, MA, USA) to measure accumulation of [^3H]IPs (IP1,IP2, and IP3, collectively referred to as IPs).

[6] abbreviates: [3H]Mesulergine, membranes from HeLa-5-HT2C cells, read-out: Binding at 5-HT2 receptors Ki 5-HT2C.
Setting [7] is: [3H]Ketanserin, membranes from CHO-FA4-5-HT2A cells, read-out: Binding at 5-HT2 receptors Ki 5-HT2A.

T2 sequence (P41595 whole entry): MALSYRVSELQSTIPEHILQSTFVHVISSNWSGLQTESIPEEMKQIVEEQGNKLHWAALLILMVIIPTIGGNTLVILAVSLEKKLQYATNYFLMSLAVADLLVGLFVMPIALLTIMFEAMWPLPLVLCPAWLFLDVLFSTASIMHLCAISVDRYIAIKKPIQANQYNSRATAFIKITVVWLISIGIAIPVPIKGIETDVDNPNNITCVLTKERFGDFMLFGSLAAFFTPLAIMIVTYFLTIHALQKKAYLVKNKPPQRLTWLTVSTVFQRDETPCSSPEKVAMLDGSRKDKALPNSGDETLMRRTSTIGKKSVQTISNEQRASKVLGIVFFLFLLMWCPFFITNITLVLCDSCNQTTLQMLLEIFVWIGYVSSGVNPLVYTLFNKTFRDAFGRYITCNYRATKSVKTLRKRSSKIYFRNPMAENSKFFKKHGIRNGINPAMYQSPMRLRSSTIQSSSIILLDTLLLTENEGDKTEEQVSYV

In the case of `COc1cc(CC(C)N)c(OCCCCCCCCCCC(=O)NCCCNS(=O)(=O)c2cccc3c(N(C)C)cccc23)cc1I` (stereo not drawn) [10c, 11-(2-(2-aminopropyl)-5-iodo-4-methoxyphenoxy)-N-(3-((5-(dimethyl-amino)naphthalene)-1-sulfonamido)propyl)undecanamide], the melting point (usually the temperature, or range, at which the solid turns liquid) is 171 to 173 °C. Also, in data set [1] (at 1 μM, [3H]Mesulergine, membranes from HeLa-5-HT2C cells), the “Binding at 5-HT2 receptors % at 1 μM 5-HT2C” value is on record as 1%. For the same compound, the “Binding at 5-HT2 receptors % at 1 μM 5-HT2A” value in data set [2] (at 1 μM, [3H]Ketanserin, membranes from CHO-FA4-5-HT2A cells) turned out to be 2%. Moreover, in data set [3], the pKi – broadly, −log10 of the Ki, conventionally taken in molar units – was 6.09.

Compound `COc1cc(CC(C)N)c(OCCCC(=O)NCCCNc2ccc([N+](=O)[O-])c3nonc23)cc1I` (stereo not drawn) [12b, 4-(2-(2-aminopropyl)-5-iodo-4-methoxyphenoxy)-N-(3-((7-nitroben-zo[c][1,2,5]oxadiazol-4-yl)amino)propyl)butanamide] displayed a melting point of 158 to 160 °C. In addition, in data set [4], the “Δλ (Stokes shift)” value is listed as 69 nm, the εmax was 23881 M⁻¹ cm⁻¹, the “λmax Abs” value was found to be 461 nm and the “λmax Em” value is on record as 530 nm. Moreover, in data set [5], the negative logarithm of the EC50 (pEC50) (commonly the EC50 on a negative log10 scale, so that one unit is a factor of ten) was 8.49. This compound also gave a negative logarithm of the Ki (pKi) in data set [1] of 5.74. The negative logarithm of the Ki (pKi) in data set [2] was 5.48. Further, in data set [3], the negative-log Ki (pKi) was 7.04. In data set [3] (over 5-HT2A and 5-HT2C, from binding Ki), the “selectivity for the 5-HT2B receptor subtype” value was at least 20 fold.

On to `COC(=O)c1c(C(=O)OCCCNC(=O)CCCOc2cc(I)c(OC)cc2CC(C)N)c2cc3ccccc3cc2c2cc3ccccc3cc12` (stereo not drawn) [12g, 6-(3-(4-(2-(2-aminopropyl)-5-iodo-4-methoxyphenoxy)butanamido)pro-pyl) 7-methyl pentaphene-6,7-dicarboxylate], for which the melting point was 150 to 152 °C. In addition, in data set [4], the “Δλ (Stokes shift)” value was determined as 123 nm, the εmax is 9977 M⁻¹ cm⁻¹, the “λmax Abs” value is 375 nm and the “λmax Em” value was 498 nm. Moreover, in data set [1] (setting [6]), the negative-log Ki (pKi) was 5.64. The pKi in data set [2] (setting [7]) was 5.43. Besides, the negative logarithm of the Ki (pKi) in data set [3] is 6.55.

`CCCCCCC(CCCCCC)N1C(=O)c2ccc3c4ccc5c6c(ccc(c7ccc(c2c37)C1=O)c64)C(=O)N(CCCNC(=O)CCCOc1cc(I)c(OC)cc1CC(C)N)C5=O` (stereo not drawn) [12h, 4-(2-(2-aminopropyl)-5-iodo-4-methoxyphenoxy)-N-(3-(1,3,8,10-tetraoxo-9-(tridecan-7-yl)-3,8,9,10-tetrahydroanthra[2,1,9-def:6,5,10-d′e′f′]diisoquinolin-2(1H)-yl)propyl)butanamide] returned a melting point of 169 to 171 °C. For the same compound, in data set [4], the “Δλ (Stokes shift)” value is reported as 70 nm, the εmax is 27500 M⁻¹ cm⁻¹, the “λmax Abs” value is given as 460 nm and the “λmax Em” value was 530 nm. Further, the pKi in data set [1] (setting [6]) was 5.10. In data set [2] (setting [7]), the negative logarithm of the Ki (pKi) was 4.82. Moreover, the pKi in data set [3] is 5.85.
